Test system: HIV-1
Assay: Single-round infectious HIV-1 luciferase reporter virus infection of HeLa CD4 cells
Type: cell-based
Details: Human immunodeficiency virus 1, HeLa, 72 h, read-out: EC50 Group from Table 1
Experimental: • Virus production—Human embryonic Kidney cell line, 293T, was propagated in Dulbecco's Modified Eagle Medium (Invitrogen, Carlsbad, Calif.) containing 10% fetal Bovine serum (FBS, Sigma, St. Louis, Mo.). • Virus infection—Human epithelial cell line, HeLa, expressing the HIV-1 receptor CD4 was propagated in Dulbecco's Modified Eagle Medium (Invitrogen, Carlsbad, Calif.) containing 10% fetal Bovine serum (FBS, Sigma, St. Louis, Mo.) and supplemented with 0.2 mg/mL Geneticin (Invitrogen, Carlsbad, Calif.). Virus—Single-round infectious reporter virus was produced by co-transfecting human embryonic Kidney 293 cells with an HIV-1 envelope DNA expression vector and a proviral cDNA containing an envelope deletion mutation and the luciferase reporter gene inserted in place of HIV-1 nef sequences (Chen et al, Ref 41). Transfections were performed using lipofectAMINE PLUS reagent as described by the manufacturer (Invitrogen, Carlsbad, Calif.). Experiment • 1. HeLa CD4 cells were plated in 96 well plates at a cell density of 1×10^4 cells per well in 100 μl Dulbecco's Modified Eagle Medium containing 10% fetal Bovine serum and incubated overnight. • 2. Compound was added in a 2 μl dimethylsulfoxide solution, so that the final assay concentration would be ≦10 μM. • 3. 100 μl of single-round infectious reporter virus in Dulbecco's Modified Eagle Medium was then added to the plated cells and compound at an approximate multiplicity of infection (MOI) of 0.01, resulting in a final volume of 200 μl per well. • 4. Virally-infected cells were incubated at 37 degrees Celsius, in a CO2 incubator, and harvested 72 h after infection. • 5. Viral infection was monitored by measuring luciferase expression from viral DNA in the infected cells using a luciferase reporter gene assay kit, as described by the manufacturer (Roche Molecular Biochemicals, Indianapolis, Ind.). Infected cell supernatants were removed and 50 μl of lysis buffer was added per well. After 15 minutes, 50 μl of freshly-reconstituted luciferase assay reagent was added per well. Luciferase activity was then quantified by measuring luminescence using a Wallac microbeta scintillation counter. • 6. The percent inhibition for each compound was calculated by quantifying the level of luciferase expression in cells infected in the presence of each compound as a percentage of that observed for cells infected in the absence of compound and subtracting such a determined value from 100. • 7. An EC50 provides a method for comparing the antiviral potency of the compounds of this invention. The effective concentration for fifty percent inhibition (EC50) was calculated with the Microsoft Excel Xlfit curve fitting software. For each compound, curves were generated from percent inhibition calculated at 10 different concentrations by using a four parameter logistic model (model 205). Table 1 is the key for the data in Table 2. Results

Q: With `C[C@@H]1CN(C(=O)c2ccccc2)CCN1C(=O)C(=O)c1c[nH]c2c(NC(=O)NCCCCCCCCNC(=O)Nc3cccc(B(O)O)c3)cccc12` [P-C-114] as the compound, how does the EC50 read?
A: < 1 µM

Q: How did the EC50 turn out when `C[C@@H]1CN(C(=O)c2ccccc2)CCN1C(=O)C(=O)c1c[nH]c2c(NC(=O)Nc3ccc(S(=O)(=O)O)cc3)cccc12` [P-C-19] was run?
A: < 1 µM

Q: How did the EC50 turn out when `N#CC(=C1CCN(C(=O)C(=O)c2c[nH]c3c(NC(=O)NCCCC(=O)O)cccc23)CC1)c1ccccc1` [P-I-5] was run?
A: < 1 µM

Q: How did the EC50 turn out when `CCOC(=O)c1ccccc1NC(=O)Nc1cccc2c(C(=O)C(=O)N3CCC(=C(C#N)c4ccccc4)CC3)c[nH]c12` [P-C-11] was run?
A: < 1 µM

Q: For `CC(=O)Nc1ccc(F)c2c(C(=O)C(=O)N3CC/C(=C(\C#N)c4ccccc4)CC3C)c[nH]c12` (stereo not shown) [P-B-3], which EC50 is on record?
A: < 1 µM

Q: With `C[C@@H]1CN(C(=O)c2ccccc2)CCN1C(=O)C(=O)c1c[nH]c2c(NC(=O)Nc3cc(C(=O)O)cc(C(=O)O)c3)cccc12` [P-I-14] as the compound, how does the EC50 read?
A: < 1 µM

Q: For `N#CC(=C1CCN(C(=O)C(=O)c2c[nH]c3c(NC(=O)NCCC(=O)O)cccc23)CC1)c1ccccc1` [P-I-3], which EC50 is on record?
A: < 1 µM

Q: How did the EC50 turn out when `COC(=O)c1cc(NC(=O)Nc2cccc3c(C(=O)C(=O)N4CCN(C(=O)c5ccccc5)C[C@H]4C)c[nH]c23)cc(C(=O)OC)c1` [P-C-16] was run?
A: < 1 µM

Q: For `C[C@@H]1CN(C(=O)c2ccccc2)CCN1C(=O)C(=O)c1c[nH]c2c(NS(C)(=O)=O)cccc12` [P-E-1], which EC50 is on record?
A: < 1 µM

Q: With `CC(=O)Nc1ccc(F)c2c(C(=O)C(=O)N3CCC(=C(C#N)c4ccncc4)CC3)c[nH]c12` [P-B-6] as the compound, how does the EC50 read?
A: < 1 µM

Q: Which EC50 does the source give for `C[C@@H]1CN(C(=O)c2ccccc2)CCN1C(=O)C(=O)c1cn(S(C)(=O)=O)c2c(NS(C)(=O)=O)cccc12` [P-E-2] here?
A: < 1 µM

Q: For `C[C@@H]1CN(C(=O)c2ccccc2)CCN1C(=O)C(=O)c1c[nH]c2c(NC(=O)NCCCCNC(=O)Nc3cccc(B(O)O)c3)cccc12` [P-C-112], which EC50 is on record?
A: < 1 µM

Q: How did the EC50 turn out when `C[C@@H]1CN(C(=O)c2ccccc2)CCN1C(=O)C(=O)c1c[nH]c2c(NC(=O)NCCOCCOCCNC(=O)c3cccc(B(O)O)c3)cccc12` [P-C-401] was run?
A: < 1 µM

Q: `C[C@@H]1CN(C(=O)c2ccccc2)CCN1C(=O)C(=O)c1c[nH]c2c(NC(=O)NCCCCNC(=O)Nc3ccc(B(O)O)cc3)cccc12` [P-C-103] was tested. Which EC50 did it give?
A: < 1 µM

Q: For `COC(=O)CCCNC(=O)Nc1cccc2c(C(=O)C(=O)N3CCN(C(=O)c4ccccc4)C[C@H]3C)c[nH]c12` [P-C-4], which EC50 is on record?
A: < 1 µM

Q: `C[C@@H]1CN(C(=O)c2ccccc2)CCN1C(=O)C(=O)c1c[nH]c2c(NC(=O)NCCCCCCNC(=O)Nc3cccc(B(O)O)c3)cccc12` [P-C-113] was tested. Which EC50 did it give?
A: < 1 µM

Q: With `CCOC(=O)c1cccc(NC(=O)Nc2cccc3c(C(=O)C(=O)N4CCN(C(=O)c5ccccc5)C[C@H]4C)c[nH]c23)c1` [P-C-12] as the compound, how does the EC50 read?
A: < 1 µM

Q: `C[C@@H]1CN(C(=O)c2ccccc2)CCN1C(=O)C(=O)c1c[nH]c2c(NC(=O)CCC(=O)O)cccc12` [P-A-8] was tested. Which EC50 did it give?
A: < 1 µM

Q: How did the EC50 turn out when `O=C(O)CCCNC(=O)Nc1ncc(F)c2c(C(=O)C(=O)N3CCN(C(=O)c4ccccc4)CC3)c[nH]c12` [P-I-16] was run?
A: < 1 µM

Q: How did the EC50 turn out when `C[C@@H]1CN(C(=O)c2ccccc2)CCN1C(=O)C(=O)c1c[nH]c2c(NC(=O)c3ccc(B(O)O)cc3)cccc12` [P-A-23] was run?
A: < 1 µM

Q: With `CCOC(=O)c1cccc(NC(=O)Nc2cccc3c(C(=O)C(=O)N4CCC(=C(C#N)c5ccccc5)CC4)c[nH]c23)c1` [P-C-13] as the compound, how does the EC50 read?
A: < 1 µM

Q: How did the EC50 turn out when `C[C@@H]1CN(C(=O)c2ccccc2)CCN1C(=O)C(=O)c1c[nH]c2c(NC(=O)NCCC(=O)O)cccc12` [P-I-2] was run?
A: < 1 µM

Q: `N#CC(=C1CCN(C(=O)C(=O)c2c[nH]c3c(NC(=O)Nc4ccc(C(=O)O)cc4)cccc23)CC1)c1ccccc1` [P-I-13] was tested. Which EC50 did it give?
A: < 1 µM

Q: Which EC50 does the source give for `CCOC(=O)CCCNC(=O)Nc1cccc2c(C(=O)C(=O)N3CCN(C(=O)c4ccccc4)C[C@H]3C)c[nH]c12` [P-C-5] here?
A: < 1 µM

Q: `COC(=O)C(O)C(O)C(=O)Nc1cccc2c(C(=O)C(=O)N3CCN(C(=O)c4ccccc4)C[C@H]3C)c[nH]c12` (stereo partly shown) [P-A-17] was tested. Which EC50 did it give?
A: < 1 µM

Q: Which EC50 does the source give for `CC(=O)Nc1ccc(F)c2c(C(=O)C(=O)N3CCN(C(=O)c4ccccc4)CC3)c[nH]c12` [P-B-2] here?
A: < 1 µM

Q: How did the EC50 turn out when `N#CC(=C1CCN(C(=O)C(=O)c2c[nH]c3c(NC(=O)NC4CCN(C(=O)C(F)(F)F)CC4)cccc23)CC1)c1ccccc1` [P-C-25] was run?
A: < 1 µM

Q: `N#CC(=C1CCN(C(=O)C(=O)c2c[nH]c3c(NC(=O)Nc4ccccc4C(=O)O)cccc23)CC1)c1ccccc1` [P-I-10] was tested. Which EC50 did it give?
A: < 1 µM

Q: How did the EC50 turn out when `COC(=O)c1ccccc1NC(=O)Nc1cccc2c(C(=O)C(=O)N3CCN(C(=O)c4ccccc4)C[C@H]3C)c[nH]c12` [P-C-9] was run?
A: < 1 µM

Q: With `CCOC(=O)CNC(=O)Nc1cccc2c(C(=O)C(=O)N3CCN(C(=O)c4ccccc4)C[C@H]3C)c[nH]c12` [P-C-1] as the compound, how does the EC50 read?
A: < 1 µM

Q: `CCOC(=O)CCCCCNC(=O)Nc1cccc2c(C(=O)C(=O)N3CCC(=C(C#N)c4ccccc4)CC3)c[nH]c12` [P-C-8] was tested. Which EC50 did it give?
A: < 1 µM

Q: For `C[C@@H]1CN(C(=O)c2ccccc2)CCN1C(=O)C(=O)c1c[nH]c2c(NC(=O)NCCCCCCNC(=O)NCCOCCOCCN)cccc12` [P-C-111], which EC50 is on record?
A: < 1 µM

Q: For `COC(=O)c1cc(NC(=O)Nc2cccc3c(C(=O)C(=O)N4CCC(=C(C#N)c5ccccc5)CC4)c[nH]c23)cc(C(=O)OC)c1` [P-C-17], which EC50 is on record?
A: < 1 µM

Q: For `C[C@@H]1CN(C(=O)c2ccccc2)CCN1C(=O)C(=O)c1c[nH]c2c(NC(=O)Nc3cccc(B(O)O)c3)cccc12` [P-C-202], which EC50 is on record?
A: < 1 µM

Q: How did the EC50 turn out when `COS(=O)(=O)c1ccc(NC(=O)Nc2cccc3c(C(=O)C(=O)N4CCC(=C(C#N)c5ccccc5)CC4)c[nH]c23)cc1` [P-C-18] was run?
A: < 1 µM

Q: For `CCOC(=O)CCCNC(=O)Nc1cccc2c(C(=O)C(=O)N3CCC(=C(C#N)c4ccccc4)CC3)c[nH]c12` [P-C-6], which EC50 is on record?
A: < 1 µM

Q: Which EC50 does the source give for `C[C@@H]1CN(C(=O)c2ccccc2)CCN1C(=O)C(=O)c1c[nH]c2c(N3CCN(CCCl)C3=O)cccc12` [P-G-1] here?
A: < 1 µM

Q: How did the EC50 turn out when `N#CC(=C1CCN(C(=O)C(=O)c2c[nH]c3c(NC(=O)Nc4cc(C(=O)O)cc(C(=O)O)c4)cccc23)CC1)c1ccccc1` [P-I-15] was run?
A: < 1 µM

Q: With `C[C@@H]1CN(C(=O)c2ccccc2)CCN1C(=O)C(=O)c1c[nH]c2c(NC(=O)Nc3ccc(C#N)cc3)cccc12` [P-C-22] as the compound, how does the EC50 read?
A: < 1 µM

Q: For `C[C@@H]1CN(C(=O)c2ccccc2)CCN1C(=O)C(=O)c1c[nH]c2c(NC(=O)C(=O)O)cccc12` [P-A-18], which EC50 is on record?
A: < 1 µM

Q: With `C[C@@H]1CN(C(=O)c2ccccc2)CCN1C(=O)C(=O)c1c[nH]c2c(NC(=O)CO)cccc12` [P-I-1] as the compound, how does the EC50 read?
A: < 1 µM

Q: With `CC/N=C(\NCCCN(C)C)Nc1cccc2c(C(=O)C(=O)N3CCN(C(=O)c4ccccc4)C[C@H]3C)c[nH]c12` [P-F-2] as the compound, how does the EC50 read?
A: < 1 µM

Q: With `C[C@@H]1CN(C(=O)c2ccccc2)CCN1C(=O)C(=O)c1c[nH]c2c(NC(=O)c3ccccn3)cccc12` [P-A-20] as the compound, how does the EC50 read?
A: < 1 µM

Q: With `C[C@@H]1CN(C(=O)c2ccccc2)CCN1C(=O)C(=O)c1c[nH]c2c(NC(=O)NCCOCCOCCNC(=O)c3ccc(B(O)O)cc3)cccc12` [P-C-402] as the compound, how does the EC50 read?
A: < 1 µM

Q: Which EC50 does the source give for `C[C@@H]1CN(C(=O)c2ccccc2)CCN1C(=O)C(=O)c1c[nH]c2c(NC(=O)NCCCCCCNC(=O)Nc3ccc(B(O)O)cc3)cccc12` [P-C-106] here?
A: < 1 µM

Q: Which EC50 does the source give for `CC(=O)Nc1ccc(F)c2c(C(=O)C(=O)N3CCC(=C(C#N)c4ccccc4)CC3)c[nH]c12` [P-B-4] here?
A: < 1 µM

Q: With `Cc1ccc(S(=O)(=O)Nc2cccc3c(C(=O)C(=O)N4CCN(C(=O)c5ccccc5)C[C@H]4C)c[nH]c23)cc1` [P-E-3] as the compound, how does the EC50 read?
A: 1 to 5 µM

Q: `CCOC(=O)c1ccc(NC(=O)Nc2cccc3c(C(=O)C(=O)N4CCC(=C(C#N)c5ccccc5)CC4)c[nH]c23)cc1` [P-C-15] was tested. Which EC50 did it give?
A: < 1 µM

Q: How did the EC50 turn out when `CCOC(=O)CCCCCNC(=O)Nc1cccc2c(C(=O)C(=O)N3CCN(C(=O)c4ccccc4)C[C@H]3C)c[nH]c12` [P-C-7] was run?
A: < 1 µM
